Source: US20170326125A1, “MULTISUBSTITUTED AROMATIC COMPOUNDS AS INHIBITORS OF THROMBIN” (VERSEON CORPORATION, priority 2016, published 2017)

Molecular target: T1, Human thrombin (Homo sapiens, UniProt P00734)
T1 construct: purchased Haematologic Technologies Inc
Assay: Inhibition of the protease activity of thrombin (chromogenic substrate S-2238)
Assay type: biochemical
Conditions: inhibition of the protease activity of thrombin; class symbols a/b/c
Description: Compounds described herein can be assayed, by a variety of methods known in the art and described herein, for inhibition of biological activity, e.g., protease activity, of a variety of proteins, e.g., thrombin.
The thrombin activity reported herein (e.g., Table A) was obtained as follows. Human thrombin was obtained from Haematologic Technologies Inc. The chromogenic
Thrombin was assayed in buffer containing 0.05 M Tris (pH 7.4), 0.015 M NaCl and 0.01% PEG-8000. The final concentration of enzyme used was 3 nM thrombin. […] All assays were performed in 96-well microtiter plates at room temperature (RT). […] Inhibitor IC50 values were determined by adding test compound as ten point, three-fold serial dilutions in buffer solution, as known in the art. The plate was read at 10 minutes after substrate addition. The IC50 was calculated by plotting the percent (%) inhibition against compound concentration and fitting the data to a constrained four parameter sigmoidal curve, as known in the art.

| IC50 [nM] | Compound |
| --- | --- |
| > 1000 | CN(C)C(=O)c1cc(-c2ccccn2)nn1CCc1ccc(F)cc1 [Cmpd 128, 1-[2-(4-fluorophenyl)ethyl]-N,N-dimethyl-3-(pyridin-2-yl)-1H-pyrazole-5-carboxamide] |
| > 1000 | CN(C)C(=O)c1cc(-c2ccccn2)n(CCc2ccc(F)cc2)n1 [Cmpd 129, 1-[2-(4-fluorophenyl)ethyl]-N,N-dimethyl-5-(pyridin-2-yl)-1H-pyrazole-3-carboxamide] |
| > 1000 | CN(C(=O)c1cc(-c2ccccn2)nn1CCc1ccc(F)cc1)c1ccccc1 [Cmpd 130, 1-[2-(4-fluorophenyl)ethyl]-N-methyl-N-phenyl-3-(pyridin-2-yl)-1H-pyrazole-5-carboxamide] |
| > 1000 | CN(C(=O)c1cc(-c2ccccn2)n(CCc2ccc(F)cc2)n1)c1ccccc1 [Cmpd 131, 1-[2-(4-fluorophenyl)ethyl]-N-methyl-N-phenyl-5-(pyridin-2-yl)-1H-pyrazole-3-carboxamide] |
| < 100 | CC(C)C(=O)n1nc(-c2ccccn2)nc1NCc1ccccc1 [Cmpd 138, 1-[5-(benzylamino)-3-(pyridin-2-yl)-1H-1,2,4-triazol-1-yl]-2-methylpropan-1-one] |
| < 100 | O=C(Cc1ccccc1)n1nc(-c2ccccn2)nc1NCc1ccccc1 [Cmpd 139, 1-[5-(benzylamino)-3-(pyridin-2-yl)-1H-1,2,4-triazol-1-yl]-2-phenylethan-1-one] |
| < 100 | CCCC(=O)n1nc(-c2ccccn2)nc1NCc1ccccc1 [Cmpd 141, 1-[5-(benzylamino)-3-(pyridin-2-yl)-1H-1,2,4-triazol-1-yl]butan-1-one] |
| 100 to 1000 | CC(C)CC(=O)n1nc(-c2ccccn2)cc1NCc1ccccc1 [Cmpd 144, 1-[5-(benzylamino)-3-(pyridin-2-yl)-1H-pyrazol-1-yl]-3-methylbutan-1-one] |
| 100 to 1000 | O=C(CCc1ccccc1)n1nc(-c2ccncc2)nc1NCc1ccccc1 [Cmpd 149, 1-[5-(benzylamino)-3-(pyridin-4-yl)-1H-1,2,4-triazol-1-yl]-3-phenylpropan-1-one] |
| 100 to 1000 | COc1ccc(CNc2nc(-c3ccccn3)nn2C(=O)c2ccccc2)cc1 [Cmpd 157, 1-benzoyl-N-[(4-methoxyphenyl)methyl]-3-(pyridin-2-yl)-1H-1,2,4-triazol-5-amine] |
| < 100 | O=C(c1ccccc1)n1nc(-c2ccccn2)nc1NCc1ccccc1 [Cmpd 159, 1-benzoyl-N-benzyl-3-(pyridin-2-yl)-1H-1,2,4-triazol-5-amine] |
| < 100 | O=C(c1ccccc1)n1nc(-c2ccncc2)nc1NCc1ccccc1 [Cmpd 160, 1-benzoyl-N-benzyl-3-(pyridin-4-yl)-1H-1,2,4-triazol-5-amine] |
| > 1000 | Fc1ccc(CNc2nc(-c3ccccn3)n(Cc3ccccc3)n2)cc1 [Cmpd 162, 1-benzyl-N-[(4-fluorophenyl)methyl]-5-(pyridin-2-yl)-1H-1,2,4-triazol-3-amine] |
| > 1000 | CC(O)c1cc(-c2ccccn2)nn1CCc1ccc(F)cc1 (stereo not shown) [Cmpd 163, 1-1-[2-(4-fluorophenyl)ethyl]-3-(pyridin-2-yl)-1H-pyrazol-5-ylethan-1-ol] |
| > 1000 | CC(=O)c1cc(-c2ccccn2)nn1CCc1ccc(F)cc1 [Cmpd 164, 1-1-[2-(4-fluorophenyl)ethyl]-3-(pyridin-2-yl)-1H-pyrazol-5-ylethan-1-one] |
| > 1000 | O=C(Oc1ccccc1Cl)n1nc(-c2cccnc2)nc1NCc1ccc(F)cc1 [Cmpd 172, 2-chlorophenyl 5-[(4-fluorophenyl)methyl]amino-3-(pyridin-3-yl)-1H-1,2,4-triazole-1-carboxylate] |
| > 1000 | O=C(Oc1ccccc1F)n1nc(-c2cccnc2)nc1NCc1ccc(F)cc1 [Cmpd 173, 2-fluorophenyl 5-[(4-fluorophenyl)methyl]amino-3-(pyridin-3-yl)-1H-1,2,4-triazole-1-carboxylate] |

Further lines, the molecule ahead of its results:

| Compound | IC50 [nM] |
| --- | --- |
| COc1ccc(CNc2nc(-c3ccccn3)nn2C(=O)c2ccco2)cc1 [Cmpd 123, 1-[(furan-2-yl)carbonyl]-N-[(4-methoxyphenyl)methyl]-3-(pyridin-2-yl)-1H-1,2,4-triazol-5-amine] | 100 to 1000 |
| COc1ccc(CNc2nc(-c3ccncc3)nn2C(=O)c2ccco2)cc1 [Cmpd 124, 1-[(furan-2-yl)carbonyl]-N-[(4-methoxyphenyl)methyl]-3-(pyridin-4-yl)-1H-1,2,4-triazol-5-amine] | 100 to 1000 |
| COc1ccc(CNc2nc(-c3ccccn3)nn2C(=O)c2ccoc2)cc1 [Cmpd 125, 1-[(furan-3-yl)carbonyl]-N-[(4-methoxyphenyl)methyl]-3-(pyridin-2-yl)-1H-1,2,4-triazol-5-amine] | 100 to 1000 |
| COc1ccc(CNc2nc(-c3cccnc3)nn2C(=O)c2ccoc2)cc1 [Cmpd 126, 1-[(furan-3-yl)carbonyl]-N-[(4-methoxyphenyl)methyl]-3-(pyridin-3-yl)-1H-1,2,4-triazol-5-amine] | 100 to 1000 |
| COc1ccc(CNc2nc(-c3ccncc3)nn2C(=O)c2ccoc2)cc1 [Cmpd 127, 1-[(furan-3-yl)carbonyl]-N-[(4-methoxyphenyl)methyl]-3-(pyridin-4-yl)-1H-1,2,4-triazol-5-amine] | > 1000 |
| CC(C)(C)C(=O)n1nc(-c2ccccc2F)cc1NCc1ccccc1 [Cmpd 133, 1-[5-(benzylamino)-3-(2-fluorophenyl)-1H-pyrazol-1-yl]-2,2-dimethylpropan-1-one] | 100 to 1000 |
| CC(C)CC(=O)n1nc(-c2ccccc2F)cc1NCc1ccccc1 [Cmpd 134, 1-[5-(benzylamino)-3-(2-fluorophenyl)-1H-pyrazol-1-yl]-3-methylbutan-1-one] | > 1000 |
| CCC(=O)n1nc(-c2cccc(F)c2)nc1NCc1ccccc1 [Cmpd 135, 1-[5-(benzylamino)-3-(3-fluorophenyl)-1H-1,2,4-triazol-1-yl]propan-1-one] | 100 to 1000 |
| CC(C)(C)C(=O)n1nc(-c2ccco2)nc1NCc1ccccc1 [Cmpd 136, 1-[5-(benzylamino)-3-(furan-2-yl)-1H-1,2,4-triazol-1-yl]-2,2-dimethylpropan-1-one] | < 100 |
| CC(C)(C)C(=O)n1nc(-c2ccccn2)nc1NCc1ccccc1 [Cmpd 137, 1-[5-(benzylamino)-3-(pyridin-2-yl)-1H-1,2,4-triazol-1-yl]-2,2-dimethylpropan-1-one] | < 100 |
| CC(C)CC(=O)n1nc(-c2ccccn2)nc1NCc1ccccc1 [Cmpd 140, 1-[5-(benzylamino)-3-(pyridin-2-yl)-1H-1,2,4-triazol-1-yl]-3-methylbutan-1-one] | < 100 |
| CC(C)(C)C(=O)n1nc(-c2ccncc2)nc1NCc1ccccc1 [Cmpd 145, 1-[5-(benzylamino)-3-(pyridin-4-yl)-1H-1,2,4-triazol-1-yl]-2,2-dimethylpropan-1-one] | < 100 |
| CC(C)C(=O)n1nc(-c2ccncc2)nc1NCc1ccccc1 [Cmpd 146, 1-[5-(benzylamino)-3-(pyridin-4-yl)-1H-1,2,4-triazol-1-yl]-2-methylpropan-1-one] | < 100 |
| O=C(Cc1ccccc1)n1nc(-c2ccncc2)nc1NCc1ccccc1 [Cmpd 147, 1-[5-(benzylamino)-3-(pyridin-4-yl)-1H-1,2,4-triazol-1-yl]-2-phenylethan-1-one] | < 100 |
| CC(C)CC(=O)n1nc(-c2ccncc2)nc1NCc1ccccc1 [Cmpd 148, 1-[5-(benzylamino)-3-(pyridin-4-yl)-1H-1,2,4-triazol-1-yl]-3-methylbutan-1-one] | < 100 |
| CCCC(=O)n1nc(-c2ccncc2)nc1NCc1ccccc1 [Cmpd 150, 1-[5-(benzylamino)-3-(pyridin-4-yl)-1H-1,2,4-triazol-1-yl]butan-1-one] | < 100 |
| CCC(=O)n1nc(-c2ccncc2)nc1NCc1ccccc1 [Cmpd 151, 1-[5-(benzylamino)-3-(pyridin-4-yl)-1H-1,2,4-triazol-1-yl]propan-1-one] | < 100 |
| CC(C)(C)C(=O)n1nc(-c2cccs2)nc1NCc1ccccc1 [Cmpd 152, 1-[5-(benzylamino)-3-(thiophen-2-yl)-1H-1,2,4-triazol-1-yl]-2,2-dimethylpropan-1-one] | < 100 |
| CCC(=O)n1nc(-c2cccnc2)nc1SC [Cmpd 153, 1-[5-(methylsulfanyl)-3-(pyridin-3-yl)-1H-1,2,4-triazol-1-yl]propan-1-one] | > 1000 |
| CCC(=O)n1nc(-c2cccs2)nc1SC [Cmpd 154, 1-[5-(methylsulfanyl)-3-(thiophen-2-yl)-1H-1,2,4-triazol-1-yl]propan-1-one] | > 1000 |
| CCC(=O)n1nc(-c2cccnc2)nc1N [Cmpd 155, 1-[5-amino-3-(pyridin-3-yl)-1H-1,2,4-triazol-1-yl]propan-1-one] | > 1000 |
| COc1ccc(CNc2nc(-c3ccncc3)nn2C(=O)c2ccccc2)cc1 [Cmpd 158, 1-benzoyl-N-[(4-methoxyphenyl)methyl]-3-(pyridin-4-yl)-1H-1,2,4-triazol-5-amine] | > 1000 |
| CC(C)(C)C(=O)n1nc(-c2ccccn2)cc1NCc1ccoc1 [Cmpd 166, 1-5-[(furan-3-ylmethyl)amino]-3-(pyridin-2-yl)-1H-pyrazol-1-yl-2,2-dimethylpropan-1-one] | 100 to 1000 |
| CC(C)(C)C(=O)Nc1nc(C(=O)N2CCOCC2)n[nH]1 [Cmpd 169, 2,2-dimethyl-N-3-[(morpholin-4-yl)carbonyl]-1H-1,2,4-triazol-5-ylpropanamide] | > 1000 |
| O=C(Nc1nc(C(=O)N2CCOCC2)n[nH]1)c1ccccc1Cl [Cmpd 170, 2-chloro-N-3-[(morpholin-4-yl)carbonyl]-1H-1,2,4-triazol-5-ylbenzamide] | > 1000 |
| O=C(Nc1nc(C(=O)N2CCCC2)n[nH]1)c1ccccc1Cl [Cmpd 171, 2-chloro-N-3-[(pyrrolidin-1-yl)carbonyl]-1H-1,2,4-triazol-5-ylbenzamide] | > 1000 |
